According to patent publication US6413967B1, “Inhibition of novel calcium entry pathway in electrically non-excitable cells acting as an anti-proliferative therapy” (The University of Virginia Patents Foundation, priority 1995, dated 2002):

Test system: human PBMC
Test: lymphocyte proliferation, 3H-thymidine incorporation
Type: cell-based
Description: Human PBMC were isolated from peripheral blood obtained from healthy donors. Cells were washed twice and were placed in triplicate wells at a concentration of 1×10^5 cells/ml in serum-free RPMI-1640 supplemented with 100 U of both penicillin and streptomycin. Drug treatments were added 15 minutes before stimulation of the cells and were present throughout the 1 hour stimulation period. Stimulation by mitogen (1 μg/ml PHA) in combination with 10 nM phorbol dibutyrate (PDB) was carried out for 1 hour at 37° C. Cells were subsequently washed 3 times with RPMI and were resuspended at a concentration of 1×10^5 cells/ml in RPMI-1640 supplemented with 5% FBS and 100 U/ml of penicillin and 100 μg/ml streptomycin. For the 48 hour proliferation phase, cells were cultured with (Ca^2+-independent proliferation) or without (Ca^2+-dependent proliferation) 10 nM PDB. 1 μCi of [^3H]-Thymidine (6.7 Ci/mmol; New England Nuclear, Boston, Mass.) was added to each well for the final 16 hours of the assay and at 48 h the cells were harvested and incorporated ^3H was counted by liquid scintillation counting.

**Q.** Which results are given for `CC(Cc1ccc(O)c(O)c1)C(C)Cc1ccc(O)c(O)c1` (stereo not drawn) [NDGA, 4,4′-(2,3-dimethyl-1,4-butanediyl)bis[1,2-benzenediol]]?
**A.** IC50 (Ca^2+-dependent protocol (PHA/PDB 1 h, then medium 48 h), n=6, read-out: IC50 for inhibition of proliferation): ~3 µM; effect on Ca^2+-independent proliferation (PHA/PDB 1 h then PDB 48 h): no effect; effect on Ca^2+-dependent proliferation (PHA/PDB 1 h then medium alone 48 h): inhibited proliferation
